The values below come from ChEMBL document CHEMBL3301464, “MMV Malaria Box anti-babesial screening”.

Experiment [1] in a line: (§1) MMV: Anti-babesial activity assay. Parasite pRBCs at 1% parasitemia were cultivated in 100 ul with 96-well plates at 2.5% and 5% hematocrits. The parasites were cultivated in triplicate for 4 days without replacement of the medium for each concentration of the compound. Format: functional, Babesia bovis.
The nature of experiment [2]: as §1. Format: functional, Babesia bigemina.
Experiment [3] is described as follows: as §1. The experiment is classed as functional, Babesia equi.
Experiment [4] can be described thus: as §1. The experiment is classed as functional, Babesia caballi.

`Nc1ccc(-c2nc3cc(Oc4ccc(Oc5ccc6[nH]c(-c7ccc(N)cc7)nc6c5)cc4)ccc3[nH]2)cc1`: the IC50 (in general, the point on the concentration scale where inhibition reaches its midpoint) in experiment [1] was 10 µM; in experiment [2] it was 18.9 µM; in experiment [3], 3.86 µM; in experiment [4], 4.52 µM.

Take `COc1ccc(C)c2sc(N(Cc3cccnc3)C(=O)c3ccc(C#N)cc3)nc12`: the IC50 in experiment [1] was 0.24 µM; in experiment [2] it was 0.55 µM; in experiment [3] it was 5.69 µM; in experiment [4], 15.2 µM.

For the compound `Cc1cc(=O)oc2c1ccc1oc(C(=O)c3ccccc3)c(C)c12`, the IC50 in experiment [1] came out at 10.1 µM; in experiment [2], 11.9 µM; in experiment [3], 12.1 µM; in experiment [4] it was 5.69 µM.

On to `COc1ccc(C(=O)NC(c2ccccc2Cl)c2cc(Cl)c3cccnc3c2O)cc1` (centres undefined), for which the concentration for half-maximal inhibition (IC50) in experiment [1] was 0.19 µM; in experiment [2] it was 15.9 µM; in experiment [3], 0.42 µM; in experiment [4], 17.5 µM.

On to `CCCCCC(=O)N1c2ccccc2N=C2CC(c3ccc(OC)c(OC)c3)CC(O)=C2C1c1ccc(C(F)(F)F)cc1` (centres undefined), for which the IC50 in experiment [1] is above 25 µM; in experiment [2] it was 16.2 µM; in experiment [3], 21.9 µM; in experiment [4], 14.2 µM.

`O=C(Nc1ccc(N2CCN(Cc3ccccc3)CC2)cc1)c1cccs1`: the 50% inhibitory concentration (IC50) in experiment [1] was found to be 1.87 µM; in experiment [2], 8.47 µM; in experiment [3] it was 3.32 µM; in experiment [4], 0.08 µM.

`Cc1ccccc1OCCSc1nc2ccc(NC(=O)c3ccccc3)cc2s1`: the IC50 was 0.9 µM in experiment [1], 0.26 µM in experiment [2], 1 µM in experiment [3] and 16.9 µM in experiment [4].

With `Cc1ccc(-c2cc3nc4c(c(O)n3n2)CCCC4)cc1`, the IC50 amounted to 7.31 µM in experiment [1], 15 µM in experiment [2], 7.05 µM in experiment [3] and 15.8 µM in experiment [4].

For the compound `CCn1c(SCC(=O)Nc2cc(C(F)(F)F)ccc2Cl)nc2ccccc2c1=O`, the IC50 in experiment [1] came to 25 µM; in experiment [2] it was 3.32 µM; in experiment [3], 15.8 µM; in experiment [4] it was 14.8 µM.

On to `COc1ccc(CN2CCCC(C(=O)c3ccc(C(F)(F)F)cc3)C2)c(O)c1` (centres undefined), for which the concentration for half-maximal inhibition (IC50) was 0.21 µM in experiment [1], 19.8 µM in experiment [2], 3.86 µM in experiment [3] and 16.5 µM in experiment [4].

As for `CCN(CC)CCn1c(=N)n(CC(O)c2ccc(Cl)c(Cl)c2)c2ccccc21` (centres undefined), the IC50 came out at 10.1 µM in experiment [1], 17.2 µM in experiment [2], 3.91 µM in experiment [3] and 5.62 µM in experiment [4].

`CCN(Cc1ccccc1)C1CCN(Cc2cc(Br)ccc2O)CC1`: the IC50 in experiment [1] was 18.2 µM; in experiment [2], 20.2 µM; in experiment [3], 3.03 µM; in experiment [4], 6.51 µM.

Turning to `COc1ccc(-c2cn3c(C(=O)Nc4ccccc4Cl)c(-c4ccccc4)c4c3n2CCCC4)cc1`, the IC50 in experiment [1] came to 0.77 µM; in experiment [2], 21.6 µM; in experiment [3], 1 µM; in experiment [4] it was 12.5 µM.

`O=C(Nc1ccc(Cl)cc1)N1CCN(c2ccc3nncn3n2)CC1`: the IC50 in experiment [1] was 16.3 µM; in experiment [2], 1 µM; in experiment [3], 1.02 µM; in experiment [4], 16.3 µM.

`Cc1cc(C)cc(Nc2cc(C)nc3nc(C(F)(F)F)nn23)c1`: the IC50 in experiment [1] was 20.6 µM; in experiment [2], 13.6 µM; in experiment [3], 21.9 µM; in experiment [4], 12.4 µM.

On to `COc1ccc(CCN2CCC(CN(C)Cc3cnn(-c4ccccc4)c3)CC2)cc1`, for which the IC50 in experiment [1] amounted to 0.87 µM; in experiment [2], 4.29 µM; in experiment [3] it was 0.62 µM; in experiment [4] it was 2.45 µM.

In the case of `O=C(NC(c1ccccc1)c1ccc2cccnc2c1O)c1ccccc1` (centres undefined), the IC50 in experiment [1] came out at 1 µM; in experiment [2], 0.93 µM; in experiment [3], 0.47 µM; in experiment [4], 0.55 µM.

Consider `CCc1ccc(Nc2cc(C)nc3nc(C)nn23)cc1`, for which the IC50 came to 13.5 µM in experiment [1], 10 µM in experiment [2], 10 µM in experiment [3] and 0.074 µM in experiment [4].

As for `COCCNC(=O)c1ccc(OC2CCN(Cc3ccc(F)c(F)c3)CC2)c(Cl)c1`, the IC50 in experiment [1] worked out at 0.27 µM; in experiment [2] it was 0.98 µM; in experiment [3] it was 17.2 µM; in experiment [4] it was 1 µM.

Regarding `COc1ccc(C2C(C(=O)Nc3cccc(OC)c3)c3ccccc3C(=O)N2C2CCCCC2)cc1` (centres undefined), the IC50 in experiment [1] came to 10 µM; in experiment [2] it was 0.22 µM; in experiment [3] it was 12.5 µM; in experiment [4] it was 1 µM.

On to `COc1ccc2nc(C)cc(Nc3ccccc3O)c2c1`, for which the IC50 in experiment [1] was found to be 25 µM; in experiment [2], 15.3 µM; in experiment [3] it was 8.83 µM; in experiment [4], 1 µM.

`O=C(Nc1ccc(Cl)cc1C(=O)Nc1ccncc1)c1ccc(Cl)cc1Cl`: the IC50 in experiment [1] was 10 µM; in experiment [2] it was 19.7 µM; in experiment [3], 3.61 µM; in experiment [4] it was 5.64 µM.

For the compound `COc1ccc(CCN2C(=O)c3[nH]nc(-c4cc(Cl)c(C)cc4O)c3C2c2ccccc2F)cc1` (centres undefined), the IC50 in experiment [1] turned out to be 5.9 µM; in experiment [2], 0.63 µM; in experiment [3], 7.65 µM; in experiment [4], 9.01 µM.

With `COc1cccc(Nc2nc(NCCO)c3ccccc3n2)c1`, the concentration for half-maximal inhibition (IC50) in experiment [1] came out at 6.99 µM; in experiment [2], 1 µM; in experiment [3], 4.09 µM; in experiment [4], 1.3 µM.

In the case of `O=c1nc(C=Cc2ccc(Cl)cc2)oc2ccccc12`, the half-inhibitory concentration (IC50) is 14.3 µM in experiment [1], above 25 µM in experiment [2], 8.25 µM in experiment [3] and 11.5 µM in experiment [4].

As for `O=C(NCc1ccco1)C1CCN(S(=O)(=O)c2ccc(Cl)cc2)CC1`, the IC50 in experiment [1] was above 25 µM; in experiment [2], 13 µM; in experiment [3] it was 7.59 µM; in experiment [4] it was 25 µM.

As to `CCCCCCn1c(=N)n(CC(O)COc2cccc(C)c2)c2ccccc21` (centres undefined), the IC50 in experiment [1] came out at 0.083 µM; in experiment [2] it was 2.95 µM; in experiment [3], 3.73 µM; in experiment [4], 15.9 µM.

As to `CCCCNc1nc(NC(C)(C)C)nc(NC(C)(C)C)n1`, the IC50 in experiment [1] stood at 0.65 µM; in experiment [2] it was 1 µM; in experiment [3], 0.25 µM; in experiment [4], 0.672 µM.

Turning to `OC(CNCC1CCCO1)Cn1c2ccc(Cl)cc2c2cc(Cl)ccc21` (centres undefined), the IC50 in experiment [1] was found to be 21.1 µM; in experiment [2], 0.79 µM; in experiment [3], 11.9 µM; in experiment [4], 10 µM.

With `COc1cccc(Cn2c(Oc3ccccc3)nc3c2c(=O)n(C)c(=O)n3C)c1`, the IC50 is 10.3 µM in experiment [1], 10 µM in experiment [2], above 25 µM in experiment [3] and 5.7 µM in experiment [4].

For the compound `OC(Cn1nnc2ccccc21)Cn1c2ccc(Br)cc2c2cc(Br)ccc21` (centres undefined), the IC50 in experiment [1] worked out at 0.1 µM; in experiment [2], 1.3 µM; in experiment [3] it was 12.6 µM; in experiment [4] it was 15.9 µM.

Regarding `CCN(CC)CCCNc1ccnc2cc3ccccc3cc12`, the IC50 in experiment [1] was 2.7 µM; in experiment [2], 1.3 µM; in experiment [3], 15.9 µM; in experiment [4], 25 µM.

With `COc1ccc(OC)c(C2C3=C(CC(C)(C)CC3=O)N(c3ccc(Cl)c(Cl)c3)C3=C2C(=O)CC(C)(C)C3)c1`, the IC50 was 10 µM in experiment [1], 17.8 µM in experiment [2], 10.7 µM in experiment [3] and 0.14 µM in experiment [4].

As for `COc1cccc(O)c1CN1CCC2(CCCN(Cc3ccc(F)cc3)C2)C1` (centres undefined), the IC50 in experiment [1] is 2.45 µM; in experiment [2] it was 10 µM; in experiment [3], 4.6 µM; in experiment [4] it was 3.09 µM.

With `Cc1cc(Nc2ccc(C)c(Cl)c2)n2nc(C(F)(F)F)nc2n1`, the IC50 in experiment [1] was 15 µM; in experiment [2], 14.8 µM; in experiment [3] it was above 25 µM; in experiment [4], 0.69 µM.

On to `COc1ccc(N2CCN(C(CNC(=O)CC(C)(C)C)c3ccc4c(c3)OCO4)CC2)cc1` (centres undefined), for which the IC50 in experiment [1] stood at 0.79 µM; in experiment [2], 0.1 µM; in experiment [3], 0.51 µM; in experiment [4], 16.1 µM.

As for `CC(O)(c1ccc(Cl)cc1)C(CN1CCCCC1)c1ccccc1` (centres undefined), the IC50 in experiment [1] came out at 13.3 µM; in experiment [2], 0.87 µM; in experiment [3] it was 7.09 µM; in experiment [4], 0.08 µM.

Consider `COCCNCC(O)Cn1c2ccc(Cl)cc2c2cc(Cl)ccc21` (centres undefined), for which the IC50 is above 25 µM in experiment [1], 1.87 µM in experiment [2], 16.3 µM in experiment [3] and 5.64 µM in experiment [4].

In the case of `O=C1c2ccccc2C2=Nc3ccccc3SC(c3cccc(F)c3)C12` (centres undefined), the IC50 was determined as 0.31 µM in experiment [1], 5.3 µM in experiment [2], 14.8 µM in experiment [3] and 0.13 µM in experiment [4].

In the case of `CCOc1cc(Cl)c(C(C)NC(=O)c2ccccc2)cc1OCC` (centres undefined), the IC50 was above 25 µM in experiment [1], 4.19 µM in experiment [2], 10 µM in experiment [3] and 12.4 µM in experiment [4].

Consider `COc1ccc(C2c3ccc4ccccc4c3Oc3ncn(CCCn4ccnc4)c(=N)c32)cc1OC` (centres undefined), for which the IC50 in experiment [1] is 6.3 µM; in experiment [2] it was 0.1 µM; in experiment [3], 5.68 µM; in experiment [4], 0.41 µM.

For the compound `FC(F)(F)c1cccc(CNC2CCN(CCc3ccccc3)CC2)c1`, the half-maximal inhibitory concentration (IC50) in experiment [1] is 15.6 µM; in experiment [2], 0.36 µM; in experiment [3], 1.87 µM; in experiment [4] it was 5.35 µM.

For the compound `COc1ccc(NC(=O)C2c3ccccc3C(=O)N(CC(C)C)C2c2cccs2)cc1` (centres undefined), the 50% inhibitory concentration (IC50) in experiment [1] was 12.6 µM; in experiment [2] it was 17.3 µM; in experiment [3], 8.02 µM; in experiment [4], 9.09 µM.

With `CC(C)CNC(=O)c1c(N)n(CCc2ccccc2F)c2nc3ccccc3nc12`, the IC50 in experiment [1] is 10 µM; in experiment [2], 7.67 µM; in experiment [3], 13.3 µM; in experiment [4] it was 1 µM.

Take `Oc1ccccc1CNCC12CC3CC(CC(C3)C1)C2`: the IC50 in experiment [1] was 14.7 µM; in experiment [2], 15.9 µM; in experiment [3] it was 13.1 µM; in experiment [4] it was 10 µM.

On to `CN1CCN(c2c3c(c(C#N)c4nc5ccccc5n24)CCC3)CC1`, for which the half-inhibitory concentration (IC50) in experiment [1] was 13.3 µM; in experiment [2], 19.2 µM; in experiment [3], 8.25 µM; in experiment [4], above 25 µM.
